Reference: patent US12195482B1 (Arcus Biosciences, Inc., priority 2022, dated 2025)

How the values were obtained:
recombinant human MER = target: T1, recombinant human MER (Homo sapiens, UniProt Q12866); assay: Biochemical potency, HTRF KinEASE-TK kinase assay; conditions: 1 nM MER, 700 μM ATP
T1 construct: purchased Invitrogen
T1 sequence (Q12866 21-999): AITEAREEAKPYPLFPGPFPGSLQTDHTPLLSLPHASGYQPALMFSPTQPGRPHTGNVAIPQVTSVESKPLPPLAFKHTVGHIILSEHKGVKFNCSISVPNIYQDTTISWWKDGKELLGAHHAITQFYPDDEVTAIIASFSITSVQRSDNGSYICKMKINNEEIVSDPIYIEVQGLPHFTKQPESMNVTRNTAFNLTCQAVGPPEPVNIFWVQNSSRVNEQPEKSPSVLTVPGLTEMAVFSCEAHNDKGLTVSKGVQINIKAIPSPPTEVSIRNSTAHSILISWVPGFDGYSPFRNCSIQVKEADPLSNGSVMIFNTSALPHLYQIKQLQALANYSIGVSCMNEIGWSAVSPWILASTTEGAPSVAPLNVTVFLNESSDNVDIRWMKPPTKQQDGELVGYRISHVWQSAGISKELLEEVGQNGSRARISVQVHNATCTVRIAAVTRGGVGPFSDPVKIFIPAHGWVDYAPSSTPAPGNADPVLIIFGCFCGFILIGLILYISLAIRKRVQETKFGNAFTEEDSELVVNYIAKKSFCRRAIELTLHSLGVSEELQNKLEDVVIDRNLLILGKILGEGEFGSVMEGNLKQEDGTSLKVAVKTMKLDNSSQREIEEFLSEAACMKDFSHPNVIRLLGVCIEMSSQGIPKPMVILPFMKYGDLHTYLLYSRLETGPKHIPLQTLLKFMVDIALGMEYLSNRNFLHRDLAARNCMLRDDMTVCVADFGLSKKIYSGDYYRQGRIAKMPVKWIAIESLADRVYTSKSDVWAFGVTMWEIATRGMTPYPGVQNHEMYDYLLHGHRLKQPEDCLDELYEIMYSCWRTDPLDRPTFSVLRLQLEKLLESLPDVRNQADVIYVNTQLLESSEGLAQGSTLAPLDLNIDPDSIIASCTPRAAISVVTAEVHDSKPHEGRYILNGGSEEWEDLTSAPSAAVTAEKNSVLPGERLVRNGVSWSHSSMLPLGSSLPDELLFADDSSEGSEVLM
Summary of the method: (§1)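 Enzyme (AXL 5 nM; TYRO3 or MER 1 nM final) was preincubated with compound for 1 h at RT, then reacted for 2 h at RT with 800 nM biotinylated TK substrate and 700 µM ATP in HEPES pH 7.4, MgCl2, DTT, BSA, 1% DMSO. Percent activity came from the HTRF 665/620 ratio.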

recombinant human TYRO3 = target: T2, recombinant human TYRO3 (Homo sapiens, UniProt Q06418); assay: Biochemical potency, HTRF KinEASE-TK kinase assay; conditions: 1 nM TYRO3, 700 μM ATP
T2 construct: purchased Invitrogen
T2 sequence (Q06418 41-890): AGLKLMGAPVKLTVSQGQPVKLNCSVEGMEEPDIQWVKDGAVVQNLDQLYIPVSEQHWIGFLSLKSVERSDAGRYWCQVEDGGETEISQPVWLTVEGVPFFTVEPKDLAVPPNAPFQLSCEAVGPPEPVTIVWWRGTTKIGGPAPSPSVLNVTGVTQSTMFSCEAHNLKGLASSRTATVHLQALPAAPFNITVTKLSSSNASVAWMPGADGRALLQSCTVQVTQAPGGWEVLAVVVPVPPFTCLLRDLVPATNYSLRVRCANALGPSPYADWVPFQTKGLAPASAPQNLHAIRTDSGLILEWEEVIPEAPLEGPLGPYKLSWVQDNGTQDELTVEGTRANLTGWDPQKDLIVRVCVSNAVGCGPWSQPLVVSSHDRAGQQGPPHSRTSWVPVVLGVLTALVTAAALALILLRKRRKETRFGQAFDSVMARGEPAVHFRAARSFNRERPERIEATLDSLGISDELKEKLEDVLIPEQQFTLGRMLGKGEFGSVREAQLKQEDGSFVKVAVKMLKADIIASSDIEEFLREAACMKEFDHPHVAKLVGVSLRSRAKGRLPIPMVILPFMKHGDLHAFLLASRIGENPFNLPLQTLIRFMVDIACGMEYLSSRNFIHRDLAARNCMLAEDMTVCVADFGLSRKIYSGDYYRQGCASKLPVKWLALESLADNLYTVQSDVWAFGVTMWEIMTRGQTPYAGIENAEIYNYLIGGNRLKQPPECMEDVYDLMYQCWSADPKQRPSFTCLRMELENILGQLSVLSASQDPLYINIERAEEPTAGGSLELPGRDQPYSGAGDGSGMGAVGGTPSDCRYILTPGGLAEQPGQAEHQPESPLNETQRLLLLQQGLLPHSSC
Summary of the method: as §1

Cc1cnc(C)c(-c2ccc(-c3c[nH]c4ncc(-c5ccc6c(c5)CC[C@@](C)(N5CCC[C@H]5C)CC6)cc34)cc2)n1 [Example 58, 2,5-Dimethyl-3-(4-{5-[(7S)-7-methyl-7-[(2R)-2-methylpyrrolidin-1-yl]-6,7,8,9-tetrahydro-5H-benzo[7]annulen-2-yl]-1H-pyrrolo[2,3-b]pyridin-3-yl}phenyl)pyrazine]
IC50 (recombinant human MER): 100 to 1000 nM | IC50 (recombinant human TYRO3): 100 to 1000 nM

Cc1ccnnc1-c1ccc(-c2c[nH]c3ncc(-c4ccc5c(c4)CC[C@@](C)(N4CCC[C@H]4C)CC5)cc23)cc1 [Example 51, 4-methyl-3-(4-{5-[(7S)-7-Methyl-7-[(2R)-2-methylpyrrolidin-1-yl]-6,7,8,9-tetrahydro-5H-benzo[7]annulen-2-yl]-1H-pyrrolo[2,3-b]pyridin-3-yl}phenyl)pyridazine]
IC50 (recombinant human MER): < 100 nM | IC50 (recombinant human TYRO3): < 100 nM

Cc1ccnnc1-c1ccc(-c2n[nH]c3ncc(-c4ccc5c(c4)CC[C@@H](N4C6COCC4C6)CC5)cc23)nc1 [Example 56, 6-[(7S)-2-{3-[5-(4-Methylpyridazin-3-yl)pyridin-2-yl]-1H-pyrazolo[3,4-b]pyridin-5-yl}-6,7,8,9-tetrahydro-5H-benzo[7]annulen-7-yl]-3-oxa-6-azabicyclo[3.1.1]heptane]
IC50 (recombinant human MER): 100 to 1000 nM | IC50 (recombinant human TYRO3): 100 to 1000 nM

CC(C)(C#N)c1cccnc1-c1ccc(-c2n[nH]c3ncc(-c4ccc5c(c4)CC[C@@H](N4C6COCC4C6)CC5)cc23)cc1 [Example 85, 2-Methyl-2-[2-[4-[5-[(7S)-7-(3-oxa-6-azabicyclo[3.1.1]heptan-6-yl)-6,7,8,9-tetrahydro-5H-benzo[7]annulen-3-yl]-1H-pyrazolo[3,4-b]pyridine-3-yl]phenyl]pyridine-3-yl]propanenitrile]
IC50 (recombinant human MER): 100 to 1000 nM | IC50 (recombinant human TYRO3): 100 to 1000 nM

COc1cccc(-c2ccc(-c3n[nH]c4ncc(-c5ccc6c(c5)CC[C@@H](N5C7COCC5C7)CC6)cc34)cc2)n1 [Example 162, 6-[(7S)-2-{3-[4-(6-Methoxypyridin-2-yl)phenyl]-2H-pyrazolo[3,4-b]pyridin-5-yl}-6,7,8,9-tetrahydro-5H-benzo[7]annulen-7-yl]-3-oxa-6-azabicyclo[3.1.1]heptane]
IC50 (recombinant human MER): > 1000 nM | IC50 (recombinant human TYRO3): > 1000 nM

Cc1cc(C)c(-c2ccc(-c3c[nH]c4ncc(-c5ccc6c(c5)CC[C@@H](N5C7COCC5C7)CC6)cc34)cc2)nn1 [Example 80, 6-[(7S)-2-{3-[4-(4,6-Dimethylpyridazin-3-yl)phenyl]-1H-pyrrolo[2,3-b]pyridin-5-yl}-6,7,8,9-tetrahydro-5H-benzo[7]annulen-7-yl]-3-oxa-6-azabicyclo[3.1.1]heptane]
IC50 (recombinant human MER): < 100 nM | IC50 (recombinant human TYRO3): 100 to 1000 nM

Cc1nccnc1-c1ccc(-c2c[nH]c3ncc(-c4ccc5c(c4)CC[C@@H](N4C6COCC4C6)CC5)cc23)cc1 [Example 48, 6-[(7S)-2-{3-[4-(3-Methylpyrazin-2-yl)phenyl]-1H-pyrrolo[2,3-b]pyridin-5-yl}-6,7,8,9-tetrahydro-5H-benzo[7]annulen-7-yl]-3-oxa-6-azabicyclo[3.1.1]heptane]
IC50 (recombinant human MER): 100 to 1000 nM | IC50 (recombinant human TYRO3): 100 to 1000 nM

Clc1cc(-c2c[nH]c3ncc(-c4ccc5c(c4)CC[C@@H](N4C6COCC4C6)CC5)cc23)ccc1-c1ccccn1 [Example 44, 6-[(7S)-2-{3-[3-Chloro-4-(pyridin-2-yl)phenyl]-1H-pyrrolo[2,3-b]pyridin-5-yl}-6,7,8,9-tetrahydro-5H-benzo[7]annulen-7-yl]-3-oxa-6-azabicyclo[3.1.1]heptane]
IC50 (recombinant human MER): 100 to 1000 nM | IC50 (recombinant human TYRO3): 100 to 1000 nM
